Source: patent publication US20190352664A1, “COMPOSITIONS AND METHODS FOR CONTROLLING GENE EXPRESSION” (priority 2017, published 2019)

system: Arabidopsis; test: Ribo-seq and RNA-seq global translatome profiling (translational efficiency TE, mORF/uORF ribo-shift) upon elf18 treatment; type: in vivo; set-up: key to score (Ribo-shift): Up: ribo-shift up (i.e., increased mORF/uORF ratio); Down: ribo-shift down (i.e., decreased mORF/uORF ratio); conditions: shift of mORF/uORF ratio, elf18 vs Mock; per uORF

Molecule	score (Ribo-shift)
AT1G12580.1_1: uORF of AT1G12580.1; peptide SEQ ID NO: 1 (DNA ATGCAGCTTGCGATTTCATAG; listed as DNA, chemistry not fully specified)	Up
AT1G19270.1_3: uORF of AT1G19270.1; peptide SEQ ID NO: 3 (DNA ATGAGCAGATAG; listed as DNA, chemistry not fully specified)	Down
AT1G30330.1_1: uORF of AT1G30330.1; peptide SEQ ID NO: 4 (DNA ATGTTCTGCAACAGTTGA; listed as DNA, chemistry not fully specified)	Up
AT1G30330.13: uORF of AT1G30330.1; peptide SEQ ID NO: 5 (DNA ATGAGTGGGGTGGATTAA; listed as DNA, chemistry not fully specified)	Down
AT1G72390.1_1: uORF of AT1G72390.1; peptide SEQ ID NO: 9 (DNA ATGTTTATGAATTCTTCATTGCTCTATTCTTAG; listed as DNA, chemistry not fully specified)	Down
AT2G34630.1_2: uORF of AT2G34630.1; peptide SEQ ID NO: 10 (DNA ATGAGCTGTCACTTCTTAGTAATAAGTTGA; listed as DNA, chemistry not fully specified)	Up
AT2G42950.1_1: uORF of AT2G42950.1; peptide SEQ ID NO: 12 (DNA ATGATCTTACGTGAAATTGCAGCCTAA; listed as DNA, chemistry not fully specified)	Down
AT2G47210.1_1: uORF of AT2G47210.1; peptide SEQ ID NO: 13 (DNA ATGATAGCTACCCAGTAA; listed as DNA, chemistry not fully specified)	Up
AT3G02570.1_2: uORF of AT3G02570.1; peptide SEQ ID NO: 14 (DNA ATGCTTGAGATATTTTGTTTTTACCTCCGAGAAACGGATTTAGATTCGTAA; listed as DNA, chemistry not fully specified)	Down
AT3G03070.1_1: uORF of AT3G03070.1; peptide SEQ ID NO: 15 (DNA ATGCGTTGTTTGGTACAGCTTCACGAACAATCTCTCTCTCGATAG; listed as DNA, chemistry not fully specified)	Down
AT3G15030.1_2: uORF of AT3G15030.1; peptide SEQ ID NO: 16 (DNA ATGGGTTAG; listed as DNA, chemistry not fully specified)	Down
AT3G18140.1_2: uORF of AT3G18140.1; peptide SEQ ID NO: 17 (DNA ATGGTTGGTTTAATATTTCAATCGGGATAA; listed as DNA, chemistry not fully specified)	Down
AT3G56010.1_1: uORF of AT3G56010.1; peptide SEQ ID NO: 19 (DNA ATGCGTCGCTCTTAA; listed as DNA, chemistry not fully specified)	Up
AT3G63340.1_1: uORF of AT3G63340.1; peptide SEQ ID NO: 20 (DNA ATGAAGCAATTGTTCCTTTCAAGCATGTTTACGAGCAAAAGAGTGAAAGGGTAG; listed as DNA, chemistry not fully specified)	Down
AT4G11110.1_1: uORF of AT4G11110.1; peptide SEQ ID NO: 21 (DNA ATGATTGGCTTCTCACGATTCGATTTTTCCGGCTCCTGTTCTTAA; listed as DNA, chemistry not fully specified)	Up
AT4G17840.1_4: uORF of AT4G17840.1; peptide SEQ ID NO: 22 (DNA ATGTTATAA; listed as DNA, chemistry not fully specified)	Up

Molecule	score (Ribo-shift)
AT4G18570.1_1: uORF of AT4G18570.1; peptide SEQ ID NO: 23 (DNA ATGCTTTTAATTTCCATGCAAATCTCTCCTTTCTTCTCAAGTCATTTTTGA; listed as DNA, chemistry not fully specified)	Up
AT4G23740.1_1: uORF of AT4G23740.1; peptide SEQ ID NO: 24 (DNA ATGCCAAAAAATAAGAACAAAATTATATCCGTTGCTTGA; listed as DNA, chemistry not fully specified)	Up
AT4G23740.1_2: uORF of AT4G23740.1; peptide SEQ ID NO: 25 (DNA ATGGCGGTTCTTCACATTATCTTCACTGCGTAA; listed as DNA, chemistry not fully specified)	Down
AT4G26080.1_3: uORF of AT4G26080.1; peptide SEQ ID NO: 27 (DNA ATGTGTTTCTTCTTGTCTTCCTAG; listed as DNA, chemistry not fully specified)	Down
AT4G32660.1_1: uORF of AT4G32660.1; peptide SEQ ID NO: 28 (DNA ATGTCGTCGCGGTTCGACCCCAAGGGATTTGGCCGGTAA; listed as DNA, chemistry not fully specified)	Down
AT4G32800.1_1: uORF of AT4G32800.1; peptide SEQ ID NO: 29 (DNA ATGATAGAAACAAGAACTATCTTTTTATAA; listed as DNA, chemistry not fully specified)	Down
AT4G34460.1_1: uORF of AT4G34460.1; peptide SEQ ID NO: 30 (DNA ATGAACCTTCTTCTCTTCTAG; listed as DNA, chemistry not fully specified)	Up
AT4G37925.1_1: uORF of AT4G37925.1; peptide SEQ ID NO: 31 (DNA ATGGTTCTGTAA; listed as DNA, chemistry not fully specified)	Riboshift Down ATGGTTCTGTAA (SEQ ID
AT4G38950.1_1: uORF of AT4G38950.1; peptide SEQ ID NO: 32 (DNA ATGTGCCCCAAAAGATAA; listed as DNA, chemistry not fully specified)	Down
AT5G11790.1_1: uORF of AT5G11790.1; peptide SEQ ID NO: 33 (DNA ATGGAAAGATAA; listed as DNA, chemistry not fully specified)	Down
AT5G14930.1_1: uORF of AT5G14930.1; peptide SEQ ID NO: 34 (DNA ATGGACTCTCGTTCTCAGACATTTATTTCTCTCAGTCTTACAATATAA; listed as DNA, chemistry not fully specified)	Down
AT5G57460.1_1: uORF of AT5G57460.1; peptide SEQ ID NO: 37 (DNA ATGTTTCAATCTAACCATTGA; listed as DNA, chemistry not fully specified)	Up
AT1700.1_1: uORF of AT1G16700.1; peptide SEQ ID NO: 2 (DNA ATGTTCTTGTGA; listed as DNA, chemistry not fully specified)	Down
ATG48300.1_1: uORF of AT1G48300.1; peptide SEQ ID NO: 6 (DNA ATGCGGCGAGGAGAAAGAGAAGGTTAA; listed as DNA, chemistry not fully specified)	Up
AT1G59700.1_1: uORF of AT1G59700.1; peptide SEQ ID NO: 7 (nucleic acid, listed as DNA, chemistry not fully specified) DNA: ATGATATGTCCGTTTAGAAACAGACAAAATAAGAAGAAGAAGAAAGAGTCGTGGAGGATTCTTCATTCTTCCTCATCCTCTTCTTCACCGATTCATTAG	Down
AT1G59990.1_1: uORF of AT1G59990.1; peptide SEQ ID NO: 8 (nucleic acid, listed as DNA, chemistry not fully specified) DNA: ATGAAGAGAGAGACTGAAACAGAGGTTTCTTACTTTCTTCTCTGTATCTCTCATATTTTGCTTAAACCCTAA	Down

same assay, conditions: translational efficiency fold change, elf18 vs Mock; listed as shows 5′ UTR of the transcript

Molecule	score (TE change)
AT1G48300.1: 5′ UTR of transcript (DNA CGAGATGCGGCGAGGAGAAAGAGAAGGTTAAGGTT; listed as DNA, chemistry not fully specified)	TEup (448 had increased TEfc)
AT1G59990.1: 5′ UTR of transcript; DEA(D/H)-box RNA helicase family protein (nucleic acid) DNA: AGTGAGCTAATGAAGAGAGAGACTGAAACAGAGGTTTCTTACTTTCTTCTCTGTATCTCTCATATTTTGCTTAAACCCTAAAACCCTTTTTGGATTAGGTTTTCTCCAAATCTTATCCGCCGTGATAAAATCTGATTGCTTTTTTTCTTCATGAAAGTTTGATTTGTGAAACTCG	TEdown (389 genes displayed decreased TEfc (|z|≥1.5))
AT1G72390.1: 5′ UTR of transcript (nucleic acid) DNA: CCTTTCTCTTCCGATCGCATCTTCTTCAAAAATTTCCCACCTGTGTTTCACAAATTCCATGTTTATGAATTCTTCATTGCTCTATTCTTAGTCACCTTTGATTTCTCTCGCTTTCTATCCGATCCAATTGTTTGATGATCTTCTCTGTAACAAGCTCATAAGGTTTGAGCTTCATCTCTCTGGAGAGAATCC	TEup (448 had increased TEfc)
